Earlier results, collected in patent publication US11771704B1, “Methods of using rho kinase inhibitors to treat alzheimer's disease” (priority 2020, dated 2023).

Assays:
[1] = tested on: triple transgenic mouse model (APP Swedish, MAPT P301L, and PSEN1 M146V); conditions: 10 mg/kg/day intraperitoneally (57 mg HED); cited from earlier work
[2] = tested on: streptozotocin rats; conditions: 5 and 10 mg/kg/day intraperitoneally (226 mg HED); cited from earlier work
[3] = tested on: triple transgenic mice; conditions: 10 or 12 months of age, in water at 30 mg/kg and 100 mg/kg; cited from earlier work
[4] = tested on: APP/PS1 transgenic mice; conditions: 5 and 10 mg/kg/day intraperitoneally (70, 140 mg HED); cited from earlier work
[5] = tested on: animal model; conditions: in vivo; cited from earlier work
[6] = biological target: p38 mitogen-activated protein kinase (Homo sapiens, UniProt Q16539); conditions: cited from earlier work
[7] = in vivo, 1-hydroxy metabolite; cited from earlier work

Sequence of p38 mitogen-activated protein kinase (Q16539 whole entry): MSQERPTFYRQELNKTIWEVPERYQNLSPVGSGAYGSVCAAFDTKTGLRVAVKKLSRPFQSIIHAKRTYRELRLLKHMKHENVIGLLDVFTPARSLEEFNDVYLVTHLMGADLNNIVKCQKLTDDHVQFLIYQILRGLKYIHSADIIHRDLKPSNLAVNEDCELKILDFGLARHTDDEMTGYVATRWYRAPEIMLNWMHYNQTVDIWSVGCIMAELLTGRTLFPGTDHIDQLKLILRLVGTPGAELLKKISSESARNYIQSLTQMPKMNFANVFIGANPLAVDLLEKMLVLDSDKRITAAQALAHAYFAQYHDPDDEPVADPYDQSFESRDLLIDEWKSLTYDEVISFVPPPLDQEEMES

SMILES: Cl.O=S(=O)(c1cccc2cnccc12)N1CCCNCC1 [fasudil, Hexahydro-1-(5-Isoquinolinesulfonyl)-1H-1,4-Diazepine Monohydrochloride Hemihydrate]
- β-amyloid plaques in vivo [1]: reduce
- latency distance and quadrant time in the Morris water maze [2]: improved
- spatial memory [3]: did not observe improvements
- latency distance and quadrant time in the Morris water maze [4]: improved

SMILES: O=c1ncn2nc(Sc3ccc(F)cc3F)ccc2c1-c1c(Cl)cccc1Cl [Neflamapimod]
- efficacy in an animal model [5]: showed efficacy
- primary endpoint of improving episodic memory ([6]; Phase 2): failed
- tau in the cerebrospinal fluid ([6]; Phase 2): reducing
- Aβ deposition ([6]; humans): no effect

SMILES: O=S(=O)(c1cccc2c(O)nccc12)N1CCCNCC1 [M3, hydroxyfasudil]
- half-life [7]: about 8 hours
